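Where inhibition never reached the appropriate level, the endpoint shown equals the highest concentration tested. Otherwise, values were interpolated linearly from a five-concentration, 48-hour dose response in 96-well plates. TGI: total growth inhibition.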
Key:
Experiment in all cases: NCI tumour cell line growth inhibition, 48 h
[1] = tested on: DMS 114 small cell lung
[2] = tested on: SNB-75 CNS
[3] = tested on: 786-0 renal
[4] = tested on: HCT-15 colon
[5] = tested on: KM20L2 colon
[6] = tested on: HOP-62 NSCLC
[7] = tested on: CCRF-CEM leukemia
[8] = tested on: UACC-257 melanoma
[9] = tested on: UO-31 renal
[10] = tested on: SF-295 CNS
[11] = tested on: KM12 colon
[12] = tested on: SF-268 CNS
[13] = tested on: HCT-116 colon
[14] = tested on: RXF 393 renal
[15] = tested on: ACHN renal
[16] = tested on: IGROV1 ovarian
[17] = tested on: NCI-H460 lung
[18] = tested on: HOP-18 NSCLC
[19] = tested on: LOX IMVI melanoma
[20] = tested on: SK-MEL-28 melanoma
[21] = tested on: CAKI-1 renal
[22] = tested on: SR leukemia
[23] = tested on: OVCAR-4 ovarian
[24] = tested on: OVCAR-5 ovarian
[25] = tested on: EKVX NSCLC
[26] = tested on: SF-539 CNS
[27] = tested on: SW-620 colon
[28] = tested on: M14 melanoma
[29] = tested on: A498 renal
[30] = tested on: DMS 273 small cell lung
[31] = tested on: OVCAR-3 ovarian
[32] = tested on: MALME-3M melanoma
[33] = tested on: TK-10 renal
[34] = tested on: NCI-H226 lung
[35] = tested on: HOP-92 NSCLC
[36] = tested on: NCI-H522 lung
[37] = tested on: MOLT-4 leukemia
[38] = tested on: RXF-631 renal
[39] = tested on: SK-MEL-5 melanoma
[40] = tested on: UACC-62 melanoma
[41] = tested on: DLD-1 colon
[42] = tested on: M19-MEL melanoma
[43] = tested on: A549 NSCLC
[44] = tested on: K-562 leukemia
[45] = tested on: SNB-78 CNS
[46] = tested on: SN12C renal
[47] = tested on: XF 498 CNS
[48] = tested on: COLO 205 colon
[49] = tested on: SK-OV-3 ovarian
[50] = tested on: LXFL 529 NSCLC
[51] = tested on: SK-MEL-2 melanoma
[52] = tested on: SNB-19 CNS
[53] = tested on: HCC-2998 colon
[54] = tested on: OVCAR-8 ovarian
[55] = tested on: U251 CNS
[56] = tested on: HT29 colon
[57] = tested on: NCI-H23 lung
[58] = tested on: RPMI-8226 leukemia
[59] = tested on: P388/ADR leukemia
[60] = tested on: NCI/ADR-RES ovarian
[61] = tested on: P388 leukemia
[62] = tested on: SN12K1 renal
[63] = tested on: HL-60(TB) leukemia
[64] = tested on: MCF7 breast

Work on `COc1ccc2[nH]c3c(c2c1)[C@H](c1ccccc1)C[C@@H]1C(=O)N(c2ccccc2)C(=O)[C@H]31` yielded a TGI [1] of 92.7 µM, a TGI [2] of 40.1 µM and a TGI [3] of 35.3 µM. For the same compound, the TGI [4] was > 100 µM, the TGI [5] was > 100 µM and the TGI [6] was 48.8 µM. For the same compound, the TGI [7] was 95.2 µM, the TGI [8] was > 100 µM and the TGI [9] was 52.3 µM. The TGI [10] was > 100 µM, the TGI [11] was 43.6 µM and the TGI [12] was > 100 µM. For the same compound, the TGI [13] was 19 µM, the TGI [14] was 36.1 µM and the TGI [15] was 42.9 µM. For the same compound, the TGI [16] was > 100 µM, the TGI [17] was 84.1 µM and the TGI [18] was 6.5 µM. For the same compound, the TGI [19] was > 100 µM, the TGI [20] was > 100 µM and the TGI [21] was 71.7 µM. For the same compound, the TGI [22] was 76.4 µM, the TGI [23] was 31 µM and the TGI [24] was > 100 µM. For the same compound, the TGI [25] was > 100 µM, the TGI [26] was > 100 µM and the TGI [27] was 49.7 µM. The TGI [28] was > 100 µM, the TGI [29] was 49.6 µM and the TGI [30] was > 100 µM. The TGI [31] was 45.6 µM, the TGI [32] was > 100 µM and the TGI [33] was > 100 µM. For the same compound, the TGI [34] was 57.6 µM, the TGI [35] was 76.3 µM and the TGI [36] was > 100 µM. The TGI [37] was 31.5 µM, the TGI [38] was > 100 µM and the TGI [39] was > 100 µM. For the same compound, the TGI [40] was > 100 µM, the TGI [41] was > 100 µM and the TGI [42] was > 100 µM. The TGI [43] was 35.8 µM, the TGI [44] was > 100 µM and the TGI [45] was > 100 µM. The TGI [46] was 33.3 µM, the TGI [47] was 55.8 µM and the TGI [48] was > 100 µM. For the same compound, the TGI [49] was 50 µM, the TGI [50] was > 100 µM and the TGI [51] was > 100 µM. The TGI [52] was > 100 µM, the TGI [53] was > 100 µM and the TGI [54] was 17.6 µM. For the same compound, the TGI [55] was 38.3 µM.
In the case of `S=c1sc2c(s1)SC(c1ccccc1)CS2` (configuration not stated), the TGI [56] is reported as > 100 µM, the TGI [1] is reported as > 100 µM and the TGI [2] is reported as > 94.2 µM. For the same compound, the TGI [57] was > 100 µM, the TGI [4] was > 100 µM and the TGI [58] was > 100 µM. For the same compound, the TGI [59] was > 100 µM, the TGI [5] was > 100 µM and the TGI [6] was > 100 µM. For the same compound, the TGI [7] was > 100 µM, the TGI [8] was > 100 µM and the TGI [9] was > 100 µM. The TGI [10] was > 100 µM, the TGI [11] was > 100 µM and the TGI [12] was > 100 µM. For the same compound, the TGI [13] was > 100 µM, the TGI [14] was 91.5 µM and the TGI [16] was > 100 µM. For the same compound, the TGI [60] was > 100 µM, the TGI [17] was > 100 µM and the TGI [61] was > 100 µM. The TGI [18] was > 100 µM, the TGI [19] was > 100 µM and the TGI [20] was > 100 µM. The TGI [21] was > 100 µM, the TGI [23] was > 88.2 µM and the TGI [24] was > 100 µM. The TGI [62] was > 100 µM, the TGI [25] was > 100 µM and the TGI [26] was > 100 µM. For the same compound, the TGI [27] was > 100 µM, the TGI [29] was > 100 µM and the TGI [30] was > 100 µM. For the same compound, the TGI [31] was > 100 µM, the TGI [32] was > 100 µM and the TGI [34] was > 100 µM. For the same compound, the TGI [35] was > 100 µM, the TGI [36] was > 100 µM and the TGI [37] was > 100 µM. For the same compound, the TGI [39] was > 100 µM, the TGI [40] was > 100 µM and the TGI [41] was > 100 µM. For the same compound, the TGI [42] was > 100 µM, the TGI [43] was > 100 µM and the TGI [44] was > 100 µM. The TGI [45] was > 100 µM, the TGI [46] was > 100 µM and the TGI [48] was > 100 µM. The TGI [49] was > 100 µM, the TGI [51] was > 100 µM and the TGI [52] was > 100 µM. For the same compound, the TGI [63] was > 100 µM, the TGI [53] was > 100 µM and the TGI [54] was > 100 µM. For the same compound, the TGI [55] was > 100 µM and the TGI [64] was > 100 µM.
`O=NN1C(c2ccccc2)CNC(=O)CC1c1ccccc1` (configuration not stated) was tested, and the TGI [56] was > 100 µM, the TGI [1] was 59.3 µM and the TGI [2] was > 67.9 µM. The TGI [57] was 97.9 µM, the TGI [4] was > 100 µM and the TGI [58] was > 100 µM. The TGI [59] was 63.5 µM, the TGI [5] was 63.5 µM and the TGI [6] was > 100 µM. The TGI [7] was > 100 µM, the TGI [8] was > 100 µM and the TGI [9] was > 83.6 µM. The TGI [10] was 98.8 µM, the TGI [11] was > 100 µM and the TGI [12] was > 100 µM. The TGI [13] was > 100 µM, the TGI [14] was 81.1 µM and the TGI [16] was > 100 µM. For the same compound, the TGI [60] was > 64.6 µM, the TGI [17] was > 100 µM and the TGI [61] was 62.3 µM. The TGI [18] was > 100 µM, the TGI [19] was > 100 µM and the TGI [20] was > 100 µM. For the same compound, the TGI [21] was > 100 µM, the TGI [23] was > 100 µM and the TGI [24] was > 100 µM. The TGI [62] was > 100 µM, the TGI [25] was > 100 µM and the TGI [26] was 96.1 µM. The TGI [27] was > 100 µM, the TGI [29] was > 100 µM and the TGI [30] was > 100 µM. The TGI [31] was > 92.7 µM, the TGI [32] was > 100 µM and the TGI [34] was > 100 µM. For the same compound, the TGI [35] was > 100 µM, the TGI [36] was 46.8 µM and the TGI [37] was > 93 µM. The TGI [39] was > 93.1 µM, the TGI [40] was > 100 µM and the TGI [41] was > 100 µM. The TGI [42] was > 100 µM, the TGI [43] was > 100 µM and the TGI [44] was > 100 µM. For the same compound, the TGI [45] was > 100 µM, the TGI [46] was > 100 µM and the TGI [48] was 69.8 µM. The TGI [49] was > 89 µM, the TGI [51] was > 80 µM and the TGI [52] was > 93.2 µM. The TGI [63] was > 68.8 µM, the TGI [53] was > 100 µM and the TGI [54] was > 100 µM. The TGI [55] was > 100 µM and the TGI [64] was > 100 µM.
